# The source made the active and inactive calls. The calls are words filed in the database; no cut-off is given here.
# What was measured:
# [1] = molecular target: Muscarinic acetylcholine receptor M3 (Homo sapiens) (UniProt P20309); assay: Displacement of [3H]4-DAMP from human recombinant muscarinic M3 receptor at 10 uM incubated for 60 mins by radiometric based scintillation counter assay relative to control
# [2] = molecular target: D(1A) dopamine receptor (Homo sapiens) (UniProt P21728); assay: Displacement of [3H]SCH 23390 from human recombinant dopamine D1 receptor at 10 uM incubated for 60 mins by radiometric based scintillation counter assay relative to control
# Sequence of D(1A) dopamine receptor (Homo sapiens) (P21728 whole entry): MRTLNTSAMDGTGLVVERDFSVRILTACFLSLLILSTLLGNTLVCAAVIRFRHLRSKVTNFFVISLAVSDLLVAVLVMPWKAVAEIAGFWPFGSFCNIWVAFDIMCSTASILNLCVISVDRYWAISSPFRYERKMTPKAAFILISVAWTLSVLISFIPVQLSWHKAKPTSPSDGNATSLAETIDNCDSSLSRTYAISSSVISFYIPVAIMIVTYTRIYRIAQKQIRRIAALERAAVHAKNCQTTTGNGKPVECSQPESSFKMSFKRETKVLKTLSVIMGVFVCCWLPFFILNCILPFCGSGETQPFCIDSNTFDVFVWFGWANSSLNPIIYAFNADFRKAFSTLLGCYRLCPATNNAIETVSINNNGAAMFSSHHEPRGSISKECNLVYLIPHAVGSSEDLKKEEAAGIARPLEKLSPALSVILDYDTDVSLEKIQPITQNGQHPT
# [3] = molecular target: Substance-K receptor (Homo sapiens) (UniProt P21452); assay: Displacement of [125I]NKA from human recombinant Neurokinin A receptor at 10 uM incubated for 60 mins by radiometric based scintillation counter assay relative to control
# Sequence of Substance-K receptor (Homo sapiens) (P21452 whole entry): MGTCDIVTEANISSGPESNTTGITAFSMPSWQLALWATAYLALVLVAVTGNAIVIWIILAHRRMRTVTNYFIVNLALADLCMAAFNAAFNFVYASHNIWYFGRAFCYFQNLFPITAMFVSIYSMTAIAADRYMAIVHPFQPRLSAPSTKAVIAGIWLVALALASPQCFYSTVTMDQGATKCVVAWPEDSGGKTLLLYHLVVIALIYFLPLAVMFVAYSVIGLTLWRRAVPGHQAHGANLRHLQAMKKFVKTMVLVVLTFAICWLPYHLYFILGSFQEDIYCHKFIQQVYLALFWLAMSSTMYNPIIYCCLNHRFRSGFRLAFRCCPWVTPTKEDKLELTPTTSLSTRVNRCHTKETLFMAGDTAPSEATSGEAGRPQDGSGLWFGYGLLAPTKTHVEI
# [4] = molecular target: T1, Endothelin-1 receptor (Rattus norvegicus) (UniProt P26684); assay: Antagonist activity to ETA receptor in endothelin-1 stimulated Sprague-Dawley rat aorta assessed as induction of vessel ring contraction upto 10 uM preincubated for 15 mins; assay type: functional, tissue-based
# T1 sequence (whole entry): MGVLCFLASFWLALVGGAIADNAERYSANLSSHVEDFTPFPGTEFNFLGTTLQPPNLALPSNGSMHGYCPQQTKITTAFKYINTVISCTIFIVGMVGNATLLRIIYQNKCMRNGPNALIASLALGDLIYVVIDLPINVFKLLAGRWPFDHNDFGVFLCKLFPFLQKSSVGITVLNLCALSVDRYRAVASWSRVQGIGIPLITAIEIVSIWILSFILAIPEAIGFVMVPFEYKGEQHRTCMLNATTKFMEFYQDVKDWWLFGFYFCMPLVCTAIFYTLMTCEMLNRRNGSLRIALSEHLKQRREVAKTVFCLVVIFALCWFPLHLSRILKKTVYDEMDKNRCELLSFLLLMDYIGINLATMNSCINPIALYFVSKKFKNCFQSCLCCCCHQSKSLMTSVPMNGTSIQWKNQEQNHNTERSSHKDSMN
# [5] = Cmax in Sprague-Dawley rat at 10 mg/kg, po administered for 12 hrs by HPLC analysis; assay type: ADME, organism-based; conditions: in vivo
# [6] = Half life in Sprague-Dawley rat at 5 mg/kg, iv administered for 12 hrs by HPLC analysis; assay type: ADME, organism-based; conditions: in vivo
# [7] = molecular target: Translocator protein (Homo sapiens) (UniProt P30536); assay: Displacement of [3H] PK 11195 from peripheral-type benzodiazepine (unknown origin) at 10 uM incubated for 15 mins by radiometric based scintillation counter assay relative to control
# Sequence of Translocator protein (Homo sapiens) (P30536 whole entry): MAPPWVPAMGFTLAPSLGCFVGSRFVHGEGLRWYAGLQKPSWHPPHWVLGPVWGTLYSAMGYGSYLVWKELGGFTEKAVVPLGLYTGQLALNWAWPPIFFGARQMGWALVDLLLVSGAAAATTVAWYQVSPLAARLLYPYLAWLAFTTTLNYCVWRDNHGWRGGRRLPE
# [8] = molecular target: Endothelin receptor type B (Oryctolagus cuniculus, UniProt Q9N0W7); assay: Antagonist activity to ETB receptor in sarafotoxin-6c stimulated rabbit pulmonary artery assessed as induction of vessel ring contraction preincubated for 15 mins; assay type: functional, tissue-based; conditions: read-out: pA2 (converted)
# Sequence of Endothelin receptor type B (Oryctolagus cuniculus, UniProt Q9N0W7) (Q9N0W7 whole entry): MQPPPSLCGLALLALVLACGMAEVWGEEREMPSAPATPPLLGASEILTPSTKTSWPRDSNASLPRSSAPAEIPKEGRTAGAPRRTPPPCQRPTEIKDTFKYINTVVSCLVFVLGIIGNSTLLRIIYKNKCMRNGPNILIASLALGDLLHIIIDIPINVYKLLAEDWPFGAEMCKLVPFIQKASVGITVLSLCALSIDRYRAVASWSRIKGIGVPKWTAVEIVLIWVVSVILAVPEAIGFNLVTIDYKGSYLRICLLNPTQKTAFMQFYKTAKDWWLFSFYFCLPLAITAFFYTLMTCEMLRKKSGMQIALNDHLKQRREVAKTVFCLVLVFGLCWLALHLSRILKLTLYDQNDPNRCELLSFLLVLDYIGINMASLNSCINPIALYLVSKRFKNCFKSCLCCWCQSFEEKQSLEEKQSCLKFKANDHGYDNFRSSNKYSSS
# [9] = molecular target: Neuropeptide Y receptor type 1 (Homo sapiens) (UniProt P25929); assay: Displacement of [125I]peptide YY from human recombinant Y1 receptor at 10 uM incubated for 120 mins by radiometric based scintillation counter assay relative to control
# Sequence of Neuropeptide Y receptor type 1 (Homo sapiens) (P25929 whole entry): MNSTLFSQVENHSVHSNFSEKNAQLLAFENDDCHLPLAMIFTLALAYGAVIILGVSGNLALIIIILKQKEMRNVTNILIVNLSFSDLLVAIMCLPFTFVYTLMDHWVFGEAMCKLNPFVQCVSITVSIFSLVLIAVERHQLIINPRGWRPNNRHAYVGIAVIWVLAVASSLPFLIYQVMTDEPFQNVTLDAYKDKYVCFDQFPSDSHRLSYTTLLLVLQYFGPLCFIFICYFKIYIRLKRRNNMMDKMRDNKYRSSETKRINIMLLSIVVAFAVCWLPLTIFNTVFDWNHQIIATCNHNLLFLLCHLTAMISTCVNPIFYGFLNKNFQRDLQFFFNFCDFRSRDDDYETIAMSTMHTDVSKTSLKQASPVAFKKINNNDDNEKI
# [10] = test system: P2Y purinergic receptor (Rattus norvegicus); assay: Displacement of [35S]dATPalpha S from rat brain P2Y-purinergic receptor at 10 uM incubated for 60 mins by radiometric based scintillation counter assay relative to control
# [11] = molecular target: Muscarinic acetylcholine receptor M2 (Homo sapiens) (UniProt P08172); assay: Displacement of [3H]AF-DX 384 from human recombinant muscarinic M2 receptor at 10 uM incubated for 60 mins by radiometric based scintillation counter assay relative to control
# Sequence of Muscarinic acetylcholine receptor M2 (Homo sapiens) (P08172 whole entry): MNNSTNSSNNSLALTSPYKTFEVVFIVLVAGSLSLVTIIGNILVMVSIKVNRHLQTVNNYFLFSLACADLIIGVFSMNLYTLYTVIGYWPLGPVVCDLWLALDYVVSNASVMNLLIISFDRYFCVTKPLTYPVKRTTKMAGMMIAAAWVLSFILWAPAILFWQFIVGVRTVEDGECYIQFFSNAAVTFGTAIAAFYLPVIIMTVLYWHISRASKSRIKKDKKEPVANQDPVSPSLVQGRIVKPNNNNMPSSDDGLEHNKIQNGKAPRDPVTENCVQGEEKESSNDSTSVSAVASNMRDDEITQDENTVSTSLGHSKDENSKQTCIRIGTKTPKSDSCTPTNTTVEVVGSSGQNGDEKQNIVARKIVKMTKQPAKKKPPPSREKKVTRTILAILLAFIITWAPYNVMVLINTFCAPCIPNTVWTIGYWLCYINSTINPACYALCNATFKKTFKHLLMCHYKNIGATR
# Homo sapiens [12] = species on record: Homo sapiens; assay: Displacement of [125I]hCGRPalpha from calcitonin gene-related peptide (unknown origin) at 10 uM incubated for 90 mins by radiometric based scintillation counter assay relative to control
# [13] = molecular target: Type-2 angiotensin II receptor (Homo sapiens) (UniProt P50052); assay: Displacement of [125I]CGP 42112A from human recombinant angiotensin AT2 receptor at 10 uM incubated for 240 mins by radiometric based scintillation counter assay relative to control
# Sequence of Type-2 angiotensin II receptor (Homo sapiens) (P50052 whole entry): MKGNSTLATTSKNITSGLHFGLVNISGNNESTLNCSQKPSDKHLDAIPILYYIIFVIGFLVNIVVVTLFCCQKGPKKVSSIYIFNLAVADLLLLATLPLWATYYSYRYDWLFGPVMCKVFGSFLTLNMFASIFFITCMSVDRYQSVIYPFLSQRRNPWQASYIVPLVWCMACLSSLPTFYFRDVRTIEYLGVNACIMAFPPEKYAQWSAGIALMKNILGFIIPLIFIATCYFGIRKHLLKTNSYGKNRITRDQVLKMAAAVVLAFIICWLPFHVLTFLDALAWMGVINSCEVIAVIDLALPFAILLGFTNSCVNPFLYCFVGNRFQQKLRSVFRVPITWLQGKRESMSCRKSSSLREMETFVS
# [14] = molecular target: Vasopressin V2 receptor (Homo sapiens) (UniProt P30518); assay: Displacement of [3H]AVP from human recombinant Vasopressin V2 receptor at 10 uM incubated for 120 mins by radiometric based scintillation counter assay relative to control
# Sequence of Vasopressin V2 receptor (Homo sapiens) (P30518 whole entry): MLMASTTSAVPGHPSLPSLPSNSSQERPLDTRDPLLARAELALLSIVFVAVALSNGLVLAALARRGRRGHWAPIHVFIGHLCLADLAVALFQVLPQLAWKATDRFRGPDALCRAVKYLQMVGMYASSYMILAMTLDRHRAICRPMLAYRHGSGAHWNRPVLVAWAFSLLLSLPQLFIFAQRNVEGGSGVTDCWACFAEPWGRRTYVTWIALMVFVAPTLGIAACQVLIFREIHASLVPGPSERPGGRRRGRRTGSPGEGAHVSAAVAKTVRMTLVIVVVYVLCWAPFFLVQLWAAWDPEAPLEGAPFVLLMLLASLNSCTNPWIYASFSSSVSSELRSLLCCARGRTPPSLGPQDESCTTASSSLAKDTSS
# [15] = molecular target: T1, Endothelin-1 receptor (Rattus norvegicus); assay: In vivo antagonist activity to ETA receptor in endothelin-1 induced Sprague-Dawley rat assessed as reduction of vasopressor response at 30 mg/kg, po administered for 24 hrs; assay type: functional, organism-based
# [16] = Oral bioavailability in Sprague-Dawley rat at 10 mg/kg administered for 12 hrs by HPLC analysis; assay type: ADME, organism-based; conditions: in vivo
# [17] = Half life in Beagle dog at 5 mg/kg, po administered for 12 hrs by HPLC analysis; assay type: ADME, organism-based, Canis lupus familiaris; conditions: in vivo
# [18] = molecular target: Muscarinic acetylcholine receptor M4 (Homo sapiens) (UniProt P08173); assay: Displacement of [3H]4-DAMP from human recombinant muscarinic M4 receptor at 10 uM incubated for 60 mins by radiometric based scintillation counter assay relative to control
# Sequence of Muscarinic acetylcholine receptor M4 (Homo sapiens) (P08173 whole entry): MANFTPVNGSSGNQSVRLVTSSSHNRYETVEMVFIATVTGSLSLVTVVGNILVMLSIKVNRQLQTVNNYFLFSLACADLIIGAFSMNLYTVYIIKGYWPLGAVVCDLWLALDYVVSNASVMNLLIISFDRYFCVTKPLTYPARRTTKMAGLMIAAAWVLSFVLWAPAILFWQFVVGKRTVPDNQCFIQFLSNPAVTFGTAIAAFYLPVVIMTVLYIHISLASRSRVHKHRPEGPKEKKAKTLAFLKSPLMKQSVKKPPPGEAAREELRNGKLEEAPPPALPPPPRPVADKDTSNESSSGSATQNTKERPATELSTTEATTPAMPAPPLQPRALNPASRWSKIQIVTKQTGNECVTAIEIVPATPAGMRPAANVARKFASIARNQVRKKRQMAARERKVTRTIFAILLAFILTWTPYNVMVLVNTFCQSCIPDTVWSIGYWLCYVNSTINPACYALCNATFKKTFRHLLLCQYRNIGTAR
# [19] = molecular target: Melatonin receptor type 1A (Homo sapiens) (UniProt P48039); assay: Displacement of [125I]2-iodomelatonin from human recombinant melatonin ML1 receptor at 10 uM incubated for 240 mins by radiometric based scintillation counter assay relative to control
# Sequence of Melatonin receptor type 1A (Homo sapiens) (P48039 whole entry): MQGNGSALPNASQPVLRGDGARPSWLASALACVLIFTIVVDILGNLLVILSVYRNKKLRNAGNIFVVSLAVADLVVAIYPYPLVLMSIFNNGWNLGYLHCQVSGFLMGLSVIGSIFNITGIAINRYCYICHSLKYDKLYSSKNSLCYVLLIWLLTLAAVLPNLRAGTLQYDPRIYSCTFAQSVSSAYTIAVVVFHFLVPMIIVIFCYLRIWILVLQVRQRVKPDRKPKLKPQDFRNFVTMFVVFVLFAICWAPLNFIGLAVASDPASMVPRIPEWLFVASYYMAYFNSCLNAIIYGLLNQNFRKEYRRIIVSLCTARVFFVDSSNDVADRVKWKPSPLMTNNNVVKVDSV
# Rattus norvegicus [20] = species on record: Rattus norvegicus; assay: Displacement of [3H]batrachotoxinin from rat brain Voltage-gated Na+ channel (site 2) at 10 uM incubated for 60 mins by radiometric based scintillation counter assay relative to control; assay type: tissue-based
# [21] = Oral bioavailability in Beagle dog at 5 mg/kg administered for 12 hrs by HPLC analysis; assay type: ADME, organism-based, Canis lupus familiaris; conditions: in vivo
# [22] = molecular target: Beta-2 adrenergic receptor (Homo sapiens) (UniProt P07550); assay: Displacement of [3H](-)CGP 12177 from human recombinant beta2-adrenoceptor at 10 uM incubated for 120 mins by radiometric based scintillation counter assay relative to control
# [23] = Half life in Sprague-Dawley rat at 10 mg/kg, po administered for 12 hrs by HPLC analysis; assay type: ADME, organism-based; conditions: in vivo
# [24] = molecular target: Sigma non-opioid intracellular receptor 1 (Homo sapiens) (UniProt Q99720); assay: Displacement of [3H]DTG from human sigma-Receptor at 10 uM incubated for 120 mins by radiometric based scintillation counter assay relative to control
# Sequence of Sigma non-opioid intracellular receptor 1 (Homo sapiens) (Q99720 whole entry): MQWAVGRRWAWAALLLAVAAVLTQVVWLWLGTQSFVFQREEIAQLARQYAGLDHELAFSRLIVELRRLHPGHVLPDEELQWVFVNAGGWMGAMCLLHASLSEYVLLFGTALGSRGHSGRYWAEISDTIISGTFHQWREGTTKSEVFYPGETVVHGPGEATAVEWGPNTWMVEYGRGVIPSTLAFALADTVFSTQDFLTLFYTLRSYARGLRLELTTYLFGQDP
# [25] = molecular target: Endothelin receptor type B (Sus scrofa, UniProt P35463); assay: Displacement of [125I]endhothelin-3 from ETB receptor in porcine Cerebellum Membrane at 25 degC incubated for 3 hrs by radioligand competition binding assay; assay type: cell membranes
# [26] = Half life in cynomolgus monkey at 5 mg/kg, po administered for 12 hrs by HPLC analysis; assay type: ADME, organism-based, Macaca fascicularis; conditions: in vivo
# Rattus norvegicus [27] = species on record: Rattus norvegicus; assay: Displacement of [3H]RX 821002 from rat brain […] at 10 uM incubated for 60 mins by radiometric based scintillation counter assay relative to control; assay type: tissue-based
# Homo sapiens [28] = species on record: Homo sapiens; assay: Inhibition of human galanin receptor at 10 uM by radioligand binding assay relative to control
# Sequence of Muscarinic acetylcholine receptor M3 (Homo sapiens) (P20309 whole entry, looked up): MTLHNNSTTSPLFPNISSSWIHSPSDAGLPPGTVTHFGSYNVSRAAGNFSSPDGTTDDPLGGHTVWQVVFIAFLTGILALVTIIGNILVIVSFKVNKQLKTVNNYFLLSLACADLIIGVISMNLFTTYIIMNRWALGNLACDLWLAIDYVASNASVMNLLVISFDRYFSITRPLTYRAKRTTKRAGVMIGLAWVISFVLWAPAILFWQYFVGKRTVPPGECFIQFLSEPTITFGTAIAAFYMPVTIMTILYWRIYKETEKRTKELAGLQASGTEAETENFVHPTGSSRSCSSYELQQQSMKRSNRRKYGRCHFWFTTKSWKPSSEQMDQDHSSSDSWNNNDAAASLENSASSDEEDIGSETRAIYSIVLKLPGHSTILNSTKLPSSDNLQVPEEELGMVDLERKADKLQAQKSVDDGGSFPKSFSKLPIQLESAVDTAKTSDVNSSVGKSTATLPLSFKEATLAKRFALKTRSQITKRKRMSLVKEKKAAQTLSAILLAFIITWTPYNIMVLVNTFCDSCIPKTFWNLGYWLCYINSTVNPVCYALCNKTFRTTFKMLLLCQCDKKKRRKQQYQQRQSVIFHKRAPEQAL
structure (smiles),measurement,setting,value
CCCCN(CCCC)C(=O)CN1[C@H](c2cc(OC)c3c(c2)OCO3)C[C@@H](C(=O)O)[C@@H]1CC(C)(C)CCC,inhibition,[1],< 10%
same,inhibition,[2],14%
same,inhibition,[3],< 10%
same,Activity,[4],inactive
same,Cmax,[5],1690 ng/mL
same,half-life,[6],1.6 h
same,inhibition,[7],< 10%
same,Kb,[8],26.9 µM
same,inhibition,[9],< 10%
same,inhibition,[10],< 10%
same,inhibition,[11],< 10%
same,inhibition,Homo sapiens [12],< 10%
same,inhibition,[13],< 10%
same,inhibition,[14],< 10%
same,Activity,[15],inactive
same,bioavailability,[16],47.7%
same,half-life,[17],3.3 h
same,inhibition,[18],< 10%
same,inhibition,[19],12%
same,inhibition,Rattus norvegicus [20],< 10%
same,bioavailability,[21],19.9%
same,inhibition,[22],< 10%
same,half-life,[23],2.5 h
same,inhibition,[24],< 10%
same,IC50,[25],16.7 µM
same,half-life,[26],1 h
same,inhibition,Rattus norvegicus [27],18%
same,inhibition,Homo sapiens [28],< 10%

# From ChEMBL document CHEMBL5678795 (Eur J Pharmacol, 1999)
